According to publication PMC6934550 (Scientific Reports, 2019):
“And” between values parts separate entries of the source, which are not always exact repeats. Identical values can stand only once. “Also recorded” adds a separate entry of the source. Counter-ions that a name gives are not always drawn. Like-named read-outs stand apart in the source and are kept apart here.

Assays:
[1] = test system: EBOV (Makona variant, EBOV/Mak); assay type: cell-based, Ebola virus
EBOV/Mak = test system: EBOV/Mak; design: species or system Rhesus macaques; details: rhesus monkey, in vivo
[2] = test system: monocyte-derived macrophages (MDMs)
[3] = rhesus monkey, in vivo
[4] = rhesus monkey, in vivo; remark: listed apart in the source
[5] = rhesus monkey, in vivo; remark: listed apart in the source
EBOV = details: cited from earlier work
in vivo = details: both, rhesus monkey, po; for AUC(0-t): AUClast
in vitro [6] = details: African green monkey
[7] = human, in vivo, 10 mg/kg; cited from earlier work
in vitro [8] = details: human
in vitro [9] = details: human; remark: listed apart in the source
[10] = read-out: IC50 range over cell types
[11] = 40 mg/kg, elimination phase half-life (t1/2), range among individual animals

SMILES	Max effect [1]	IC50 [1, 10]	cytotoxicity [2]	Cmax (range) ([3]; 20 mg/kg)	in vitro antiviral activity against EBOV (EBOV)	Cmax (in vivo; 20 mg/kg, mean)	Cmax (in vivo; 40 mg/kg, mean)	Tmax (in vivo; 40 mg/kg, Tmax (range))	Tmax (in vivo; 40 mg/kg, Tmax, mean)	half-life (in vivo; [11])	CC50 (in vitro [6])	Cmax [7]	in vitro antiviral activity against EBOV [1]	IC50 ([1]; read-out: IC50)	CC50 (in vitro [8])	further results
CCN(CC)Cc1cc(Nc2ccnc3cc(Cl)ccc23)ccc1O [Amodiaquine dihydrochloride hydrate, amodiaquine dihydrochloride dihydrate]	100% at 30 and 100% at 40	3.2 to 27.9 µM	elevated cytotoxicity	7.8‒31.9	known to have in vitro antiviral activity against EBOV	17.1 ng/mL	53.7 ng/mL	0.5 to 8 h	5 h	3 to 28 h	40.1 µM	29.2 ± 10.9 ng/mL	–	–	–	RNA levels at necropsy (EBOV/Mak): 10^9–10^11 viral RNA copies/ml; clinical signs, febrile illness, weight loss versus control (EBOV/Mak): Clinical signs did not differ significantly between the groups; hematology and serum chemistry versus control (EBOV/Mak): followed the same trends as the control animal values; plasma viral load (RT-qPCR, plaque assay), words (EBOV/Mak): did not reduce plasma viral RNA copies or infectious virus titer; survival / efficacy (EBOV/Mak): All animals were euthanized or succumbed to disease by day 8 postexposure; also recorded: did not result in a survival benefit or decrease of disease signs; also recorded: did not result in a survival benefit or decrease of disease symptoms; also recorded: did not have a beneficial effect on survival or the symptoms of EVD; Median time to disposition (EBOV/Mak; po, 20 mg/kg): 7 days and 6 days; Tmax, mean ([3]; both, po, 20 mg/kg): 3 h; ALT and AST elevation [4]: 2.6- to 6.3 fold; blood pressure [4]: lower blood pressure readings than at predose; clinical observations [4]: hypoactivity, shivering (muscle tremors) and/or diarrhea; tolerability [4]: well-tolerated; plasma levels of AQ [5]: negligible levels of AQ in all but five plasma samples; in vitro EBOV inhibition (EBOV): potent EBOV inhibitor; AUC(0-t) (in vivo; 20 mg/kg, mean): 74 ng·h/mL; Tmax (in vivo; 20 mg/kg, Tmax, mean): 5 h; AUC(0-inf) (in vivo; 40 mg/kg, AUCinf, mean): 324 ng·h/mL; AUC(0-t) (in vivo; 40 mg/kg, mean): 258 ng·h/mL
C[C@H]1[C@H](OC(=O)CCC(=O)O)O[C@@H]2O[C@@]3(C)CC[C@H]4[C@H](C)CC[C@@H]1[C@@]24OO3 [Artesunate, artesunate]	–	–	–	–	–	–	–	–	–	–	> 40 µM	–	weak or undetectable; also recorded: minimal to no in vitro antiviral activity	17.2 ± 1.2 µM	> 40 µM	activity against EBOV (EBOV): no activity against EBOV has been demonstrated; CC50 (in vitro [9]): > 40 µM
C[C@H]1[C@@H](O)O[C@@H]2O[C@@]3(C)CC[C@H]4[C@H](C)CC[C@@H]1[C@@]24OO3 [Dihydroartimesinin, dihydroartemisinin]	64% at 40 and 49% at 40	–	–	–	–	–	–	–	–	–	> 40 µM	–	weak or undetectable; also recorded: minimal to no in vitro antiviral activity	31.5 µM and 35.2 µM	> 40 µM	–
CCNCc1cc(Nc2ccnc3cc(Cl)ccc23)ccc1O [N-Desethylamodiaquine hydrochloride, N-desethylamodiaquine hydrochloride]	100% at 40 and 80% at 40	2.8 to 30 µM	elevated cytotoxicity	203‒369	known to have in vitro antiviral activity against EBOV	287 ng/mL	618 ng/mL	0.5 to 8 h	5 h	12 to 51 h	33.1 µM	268.7 ± 70.8 ng/mL	–	–	–	AUClast and AUCinf, fold higher for DEAQ than for AQ ([3]; both, po): 2.5- to 3 fold; t1/2 ([3]; both, po, 20 mg/kg): 15 h; plasma levels of DEAQ ([5]; Chinese origin): detectable in all treated animals from both groups 2 and 3; half-life (in vivo; 20 mg/kg, t1/2, mean): 15.6 h
